Measured values: patent US20060069038A1, “Irreversible caspase-3 inhibitors as active site probes” (priority 2003, published 2006)
Substitutions are numbered along the chain they refer to. Where two headings read alike, the source gives them in different places.

Tests used:
Type in all cases: cell-based
[1] = system: rat thymocytes; test: DNA fragmentation (flow cytometry) in cultured rat thymocytes; settings: for IC50: Rattus norvegicus, Thymocyte
Description: (§1) Rat thymocytes were cultured for 24 hours at a density of 10×10^6 cells/ml in CytoSF4 supplemented with 2 mM L-glutamine and penicillin-streptamycin and the indicated concentration of caspase inhibitors.
DNA fragmentation was determined by flow cytometry on 1.5×10^6 thymocytes or 500,000 Jurkat cells fixed for 30 min on ice in 80% EtOH. The cells were pelleted by centrifugation at 300 g for 10 min, suspended in PBS and incubated on ice for 45 min. […] Several dilutions were prepared for each sample to ensure that signal would be found within the assays linear range.

[2] = molecular target: T1, caspase-3 (Homo sapiens, UniProt P42574); test: [125I]-M808 labeling of caspase subunits in apoptotic Jurkat cells with caspase inhibitor; settings: increasing inhibitor concentration, FIG. 4
T1 construct: endogenous in cells; host or cells: Jurkat cells, apoptosis induced with camptothecin
T1 sequence (P42574 29-175 limits assumed): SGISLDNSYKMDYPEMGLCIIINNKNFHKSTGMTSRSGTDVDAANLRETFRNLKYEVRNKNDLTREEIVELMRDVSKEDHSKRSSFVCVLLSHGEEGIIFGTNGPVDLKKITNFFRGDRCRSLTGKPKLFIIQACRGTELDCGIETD
T1 sequence (P42574 176-277 limits assumed): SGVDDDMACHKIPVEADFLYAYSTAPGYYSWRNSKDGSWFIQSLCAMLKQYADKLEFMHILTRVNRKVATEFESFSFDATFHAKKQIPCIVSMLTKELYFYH
Description: Jurkat cells (ATCC # TEB-152) were maintained in RPMI1640 supplemented with 10% FBS, 2 mM L-glutamine and antibiotics (penicillin and streptamycin). Apoptosis was induced on cells (1 million cells/ml) that had been starved for 36 hours in CytoSf4 media (Kemp technologies) by addition of camptothecin (Sigma; 3 μg/ml). NT2 cells (ATCC 3813555) were cultured in DMEM+10% FBS+2 mM L-glutamine and antibiotics. Apoptosis induced with camptothecin (5 μg/ml) in culture media.
The determination of caspase activity by [^125I]-M808 labeling was performed by pre-incubating purified recombinant human caspase-3 with indicated amounts of caspase inhibitor (M791) or vehicle (DMSO), for 1 hour at 25° C. in ICE buffer III (50 mM Hepes-KOH pH 7.0, 0.1% CHAPS, 10% sucrose, 2 mM EDTA), supplemented with 5 mM DTT. [^125I]-M808 was added to a final concentration of 1.25 μM and incubated for 5 min at 25° C. Active caspases in tissue or cell extracts were labeled by incubating 60-80 μg of lysate with [^125I]-M808 for 15 minutes at 25° C. Labeling was stopped by addition of Laemli buffer (2% SDS; 0.35 M O-mercaptoethanol; 50 mM Tris-Cl pH 6.8; 10% glycerol; 0.05% bromophenol blue) and by heating at 95° C. for 5 minutes. Caspase labeling in whole cells was performed as following. NT2 cells were plated in 24-well dishes (50 000 cells/well) in DMEM+10% FBS. […]

[3] = molecular target: T2, caspase-3 (Rattus norvegicus, UniProt P55213); test: Caspase-3 western blot in cultured rat thymocytes; settings: FIG. 5B
T2 construct: endogenous in cells; host or cells: primary rat thymocytes (Sprague-Dawley), spontaneous apoptosis in culture
T2 sequence (P55213 29-175 limits assumed): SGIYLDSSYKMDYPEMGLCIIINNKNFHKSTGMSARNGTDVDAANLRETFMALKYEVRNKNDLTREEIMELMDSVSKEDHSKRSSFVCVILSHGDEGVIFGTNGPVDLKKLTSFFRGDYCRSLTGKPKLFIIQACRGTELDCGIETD
T2 sequence (P55213 176-277 limits assumed): T1 sequence (P42574 176-277 limits assumed) with V3T, H10Q, K35R, Q50L, D53H, F77L
Description: as §1
Denatured protein extracts in 1× Laemli buffer were resolved through a 18% acrylamide gradient SDS-PAGE gel (Invitrogen) at 30 mA in Tris-Glycine buffer. Samples labeled with [^125I]-M808 were migrated until the dye front reached 0.5 cm above the end of the gel, and acrylamide 1 cm above the dye front was cut out to remove all free [^125I]-M808 and reduce background. The gels were fixed for 45 minutes in a 40% Methanol-10% Acetic acid solution and dried for 90 min at 80° C. before exposure on MS Kodak film with MS intensifying screens. For Western blotting, proteins were transferred onto a […] nitrocellulose membrane (Invitrogen) in Tris-Glycine-20% methanol buffer at 40V for 2 hours. Non-specific protein binding was minimized by incubating the membranes for 1 hour in blocking buffer (5% non-fat milk/TBS/0.1% Tween-20). Anti-caspase-3 (W R280 and MF467) were diluted 2000-fold in blocking buffer and incubated for 1 hour at 25° C. […] Densitometry was performed using a BioRad instrument and QuantityOne software. […]

SMILES: CCCCCN(C)CC(=O)[C@H](CC(=O)O)NC(=O)[C@H](CC)n1cc(C(C)(C)C)nc(NCc2nonc2C)c1=O [Example M867, (3S)-3-({(2S)-2-[5-tert-butyl-3-{[(4-methyl-1,2,5-oxadiazol-3-yl)methyl]amino}-2-oxopyrazin-1(2H)-yl]butanoyl}amino)-5-[methyl(pentyl)amino]-4-oxopentanoic acid]
- IC50 ([1]; cultured rat thymocytes, experiment of FIG. 5, read-out: IC50, inhibition of DNA fragmentation): 240 nM
- IC50 ([1]; cultured thymocytes, N. Methot et al., in press, p<0.01 vs spectrin cleavage, read-out: IC50, inhibition of DNA fragmentation): 270 nM
- IC50 ([1]; five independent experiments, read-out: DNA fragmentation IC50): 270 nM
- M867 required to inhibit DNA fragmentation compared to spectrin cleavage ([1]; ratio of IC50s): Three-fold
- intensity of [125I]-M808-labeled caspase-3 bands (occupancy) [2]: intensity of the radiolabeled bands decreased as the concentration of M867 increased
- impact on caspase-3 cleavage [3]: minimal impact on caspase-3 cleavage except at the highest concentration
